Tested on: KP4 MTAP null xenografts
Experiment: Efficacy study of KP-4 human pancreatic cancer xenograft model in NOD SCID mice
Type: in vivo
Conditions: for Tumor volume (mm^3) Final (mean): Mean ± SD
Experimental: Efficacy Study of KP-4 Human Pancreatic Cancer Xenograft Model in NOD SCID Mice
The KP-4 tumor cell line was maintained in vitro as monolayer culture in RPMI 1640 medium supplemented with 10% fetal bovine serum at 37° C. in an atmosphere of […] in air. The tumor cells were routinely subculture weekly by trypsin-EDTA treatment, not to exceed 4-5 passages. The cells growing in an exponential growth phase was harvested and counted for tumor inoculation.
Each mouse was inoculated subcutaneously on the central right flank with KP-4 tumor cells (1×10^7) in 0.1 mL of RPMI-1640 without serum for the tumor development. The treatment started when the mean tumor size reached approximately 100 mm^3. Mice were assigned to groups such that the mean tumor volume is the same for each treatment group and time point.
For routine monitoring, all study animals were monitored for not only tumor growth but also behavior such as mobility, food, and water consumption (by cage side checking only), body weight (BW), eye/hair matting and any other abnormal effect. Any mortality and/or abnormal clinical signs were recorded.
Body weights of all animals were measured twice a week throughout the study. Body weight change, expressed in %, will be calculated using the following formula: BW change (%)=(BWDay x/BWDay 0)×100, where BWDay x is BW on a given day, and BWDay 0 is BW on Day 0 (initiation of treatment).
The measurement of tumor size were conducted twice a week with a caliper and the tumor volume (mm^3) was estimated using the formula: TV=a×b^2/2, where a and b are long and short diameters of a tumor, respectively. The TVs were used for calculation of the tumor growth inhibition (TGI, an indicator of antitumor effectiveness) value using the formula: TGI (%)=[1−(Tn−T0)/(Cn−C0)]×100%, only over the dosing period (dosing days 0 to days n). Where: Tn—is the avg tumor volume at the respective day “n” after dosing throughout treatment period; T0—is the avg tumor volume in the treatment group at day 0 before treatment (immediately before); Cn—avg tumor volume in the control group at the respective day “n” after dosing throughout treatment period; and C0—average tumor volume in the control group at day 0 before treatment (immediately before). The experiment was terminated when the mean tumor volume exceeded 2000 mm^3 or severe body weight loss.
The statistical software GraphPad Prism (version number: 8) was used to analyze the difference in tumor volume between the treatment group and the solvent control group. Two-way ANOVA and Bonferroni multiple tests were used to compare whether there was a significant difference in tumor volume between the vehicle control group and each treatment group during the administration period.
Mean tumor volume at dosing start was approximately 102 mm^3, with ten mice randomized to each treatment group. In the KP4 MTAP null tumor model, mice were dosed orally, once per day (QD) with Vehicle, once per day (QD) with Compound 1 at 1, 3 mg/kg, once per day (QD) with AG270 at 100 mg/kg, mice were intravenous, per week with Docetaxel at 2.5 mg/kg, or Compound 1 combined with Docetaxel at each dose level.

C#CCNc1nc(=O)n(-c2cccnc2C)c2cc(C(F)(F)F)cc(OC)c12 [Example 36, 5-methoxy-1-(2-methylpyridin-3-yl)-4-(prop-2-yn-1-ylamino)-7-(trifluoromethyl)quinazolin-2(1H)-one]
TGI (%) (Compound 1 1 mg/kg orally QD): 36.8%
Tumor volume (mm^3) Final (mean) (Compound 1 1 mg/kg orally QD): 1,484 ± 263 mm^3
TGI (%) (Compound 1 3 mg/kg orally QD): 53.4%
Tumor volume (mm^3) Final (mean) (Compound 1 3 mg/kg orally QD): 1,121 ± 181 mm^3
effect on tumor growth (in words) (combination of Compound 1 (1, 3 mg/kg) and Docetaxel 2.5 mg/kg): significantly inhibited tumor growth in a dose dependent manner
Tumor volume (mm^3) Final (mean) (combination: Compound 1 1 mg/kg QD + Docetaxel 2.5 mg/kg per week): 767 ± 101 mm^3
TGI (%) (combination: Compound 1 1 mg/kg QD + Docetaxel 2.5 mg/kg per week, listed as Compound 1): 69.6%
Tumor volume (mm^3) Final (mean) (combination: Compound 1 3 mg/kg QD + Docetaxel 2.5 mg/kg per week): 686 ± 80 mm^3
TGI (%) (combination: Compound 1 3 mg/kg QD + Docetaxel 2.5 mg/kg per week, listed as Compound 1): 73.2%
